Measurements published in ChEMBL document CHEMBL5303573, “Mapping human microbiome drug metabolism by gut bacteria and their genes” (Nature, 2019).

Experiments:
[1] = The drug is tested on Bacteroides caccae strain: ATCC43185 for biotransformation. The drug concentrations were measured before and after a 12-h incubation by liquid-chromatography-coupled mass spectrometry (LC–MS); conditions: 2 µM
[2] = The drug is tested on Bacteroides cellulosilyticus strain: DSM14838 for biotransformation. The drug concentrations were measured before and after a 12-h incubation by liquid-chromatography-coupled mass spectrometry (LC–MS); conditions: 2 µM
[3] = The drug is tested on Subdoligranulum variabile strain: DSM15176 for biotransformation. The drug concentrations were measured before and after a 12-h incubation by liquid-chromatography-coupled mass spectrometry (LC–MS); conditions: 2 µM
[4] = The drug is tested on Collinsella aerofaciens strain: ATCC25986 for biotransformation. The drug concentrations were measured before and after a 12-h incubation by liquid-chromatography-coupled mass spectrometry (LC–MS); conditions: 2 µM
[5] = The drug is tested on Clostridium symbiosum strain: ATCC14940 for biotransformation. The drug concentrations were measured before and after a 12-h incubation by liquid-chromatography-coupled mass spectrometry (LC–MS); conditions: 2 µM
[6] = The drug is tested on Ruminococcus lactaris strain: ATCC29176 for biotransformation. The drug concentrations were measured before and after a 12-h incubation by liquid-chromatography-coupled mass spectrometry (LC–MS); conditions: 2 µM
[7] = The drug is tested on Eubacterium ventriosum strain: ATCC27560 for biotransformation. The drug concentrations were measured before and after a 12-h incubation by liquid-chromatography-coupled mass spectrometry (LC–MS); type: ADME; set-up: dose 2 uM, timepoint 0 vs 12 hours; conditions: 2 µM
[8] = The drug is tested on Edwardsiella tarda strain: ATCC23685 for biotransformation. The drug concentrations were measured before and after a 12-h incubation by liquid-chromatography-coupled mass spectrometry (LC–MS); conditions: 2 µM
[9] = The drug is tested on Dorea formicigenerans strain: ATCC27755 for biotransformation. The drug concentrations were measured before and after a 12-h incubation by liquid-chromatography-coupled mass spectrometry (LC–MS); conditions: 2 µM
[10] = The drug is tested on Anaerococcus hydrogenalis strain: DSM7454 for biotransformation. The drug concentrations were measured before and after a 12-h incubation by liquid-chromatography-coupled mass spectrometry (LC–MS); conditions: 2 µM
[11] = The drug is tested on Escherichia coli strain: BW25113 for biotransformation. The drug concentrations were measured before and after a 12-h incubation by liquid-chromatography-coupled mass spectrometry (LC–MS); conditions: 2 µM
[12] = bacteroides fragilis, 12 h, 2 µM
Description: The drug is tested on Bacteroides fragilis strain: DS-208 for biotransformation. The drug concentrations were measured before and after a 12-h incubation by liquid-chromatography-coupled mass spectrometry (LC–MS)

[13] = bifidobacterium adolescentis, 12 h, 2 µM
Description: The drug is tested on Bifidobacterium adolescentis strain: ATCC 15703 for biotransformation. The drug concentrations were measured before and after a 12-h incubation by liquid-chromatography-coupled mass spectrometry (LC–MS)

[14] = anaerostipes sp., 12 h, 2 µM
Description: The drug is tested on Anaerostipes sp. strain: fecal isolate for biotransformation. The drug concentrations were measured before and after a 12-h incubation by liquid-chromatography-coupled mass spectrometry (LC–MS)

[15] = bacteroides fragilis, 12 h, 2 µM; remark: listed apart in the source
Description: The drug is tested on Bacteroides fragilis strain: NCTC 9343 for biotransformation. The drug concentrations were measured before and after a 12-h incubation by liquid-chromatography-coupled mass spectrometry (LC–MS)

[16] = The drug is tested on Bifidobacterium longum subsp. Infantis strain: CCUG52486 for biotransformation. The drug concentrations were measured before and after a 12-h incubation by liquid-chromatography-coupled mass spectrometry (LC–MS); conditions: 2 µM
[17] = The drug is tested on Clostridium sp. strain: fecal isolate for biotransformation. The drug concentrations were measured before and after a 12-h incubation by liquid-chromatography-coupled mass spectrometry (LC–MS); conditions: 2 µM
[18] = parabacteroides distasonis, 12 h, 2 µM
Description: The drug is tested on Parabacteroides distasonis strain: ATCC8503 for biotransformation. The drug concentrations were measured before and after a 12-h incubation by liquid-chromatography-coupled mass spectrometry (LC–MS)

[19] = bacteroides fragilis, 12 h, 2 µM; remark: listed apart in the source
Description: The drug is tested on Bacteroides fragilis strain: 3397 (T10) for biotransformation. The drug concentrations were measured before and after a 12-h incubation by liquid-chromatography-coupled mass spectrometry (LC–MS)

[20] = The drug is tested on Ruminococcus gnavus strain: ATCC29149 for biotransformation. The drug concentrations were measured before and after a 12-h incubation by liquid-chromatography-coupled mass spectrometry (LC–MS); conditions: mediterraneibacter gnavus, 2 µM

With `CN(C)CCc1c[nH]c2ccc(Cn3cncn3)cc12.O=C(O)c1ccccc1` [RIZATRIPTAN BENZOATE] the “Bacterial Biotransformation” value [1] was “Compound NOT metabolized”, the “Bacterial Biotransformation” value [2] was “Compound NOT metabolized” and the “Bacterial Biotransformation” value [3] was “Compound NOT metabolized”. For the same compound, the “Bacterial Biotransformation” value [4] was “Compound NOT metabolized”, the “Bacterial Biotransformation” value [5] was “Compound NOT metabolized” and the “Bacterial Biotransformation” value [6] was “Compound NOT metabolized”. The “Bacterial Biotransformation” value [7] was “Compound NOT metabolized”, the “Bacterial Biotransformation” value [8] was “Compound NOT metabolized” and the “Bacterial Biotransformation” value [9] was “Compound NOT metabolized”. For the same compound, the “Bacterial Biotransformation” value [10] was “Compound NOT metabolized”.
With `O=C(NCc1ccccc1)OCCO` [BURAMATE] the “Bacterial Biotransformation” value [1] was “Compound NOT metabolized”, the “Bacterial Biotransformation” value [3] was “Compound NOT metabolized” and the “Bacterial Biotransformation” value [4] was “Compound NOT metabolized”. For the same compound, the “Bacterial Biotransformation” value [11] was “Compound NOT metabolized”, the “Bacterial Biotransformation” value [12] was “Compound NOT metabolized” and the “Bacterial Biotransformation” value [13] was “Compound NOT metabolized”. The “Bacterial Biotransformation” value [5] was “Compound NOT metabolized”, the “Bacterial Biotransformation” value [14] was “Compound NOT metabolized” and the “Bacterial Biotransformation” value [15] was “Compound NOT metabolized”. The “Bacterial Biotransformation” value [6] was “Compound NOT metabolized”, the “Bacterial Biotransformation” value [16] was “Compound NOT metabolized” and the “Bacterial Biotransformation” value [7] was “Compound NOT metabolized”. The “Bacterial Biotransformation” value [17] was “Compound NOT metabolized”, the “Bacterial Biotransformation” value [8] was “Compound NOT metabolized” and the “Bacterial Biotransformation” value [18] was “Compound NOT metabolized”. For the same compound, the “Bacterial Biotransformation” value [19] was “Compound NOT metabolized”, the “Bacterial Biotransformation” value [20] was “Compound NOT metabolized” and the “Bacterial Biotransformation” value [9] was “Compound NOT metabolized”.
In the case of `COc1cc2nc(N(C)CCCNC(=O)C3CCCO3)nc(N)c2cc1OC` (configuration not stated) [ALFUZOSIN], the “Bacterial Biotransformation” value [1] was “Compound NOT metabolized”, the “Bacterial Biotransformation” value [3] was “Compound NOT metabolized” and the “Bacterial Biotransformation” value [4] was “Compound NOT metabolized”. The “Bacterial Biotransformation” value [11] was “Compound NOT metabolized”, the “Bacterial Biotransformation” value [12] was “Compound NOT metabolized” and the “Bacterial Biotransformation” value [13] was “Compound NOT metabolized”. For the same compound, the “Bacterial Biotransformation” value [5] was “Compound NOT metabolized”, the “Bacterial Biotransformation” value [14] was “Compound NOT metabolized” and the “Bacterial Biotransformation” value [15] was “Compound NOT metabolized”. For the same compound, the “Bacterial Biotransformation” value [16] was “Compound NOT metabolized”, the “Bacterial Biotransformation” value [7] was “Compound NOT metabolized” and the “Bacterial Biotransformation” value [17] was “Compound NOT metabolized”. For the same compound, the “Bacterial Biotransformation” value [8] was “Compound NOT metabolized”, the “Bacterial Biotransformation” value [18] was “Compound NOT metabolized” and the “Bacterial Biotransformation” value [20] was “Compound NOT metabolized”. For the same compound, the “Bacterial Biotransformation” value [9] was “Compound NOT metabolized” and the “Bacterial Biotransformation” value [10] was “Compound NOT metabolized”.
For `Cc1nc(-c2ccc(OCC(C)C)c(C#N)c2)sc1C(=O)O` [FEBUXOSTAT], the “Bacterial Biotransformation” value [3] was “Compound NOT metabolized”, the “Bacterial Biotransformation” value [4] was “Compound NOT metabolized” and the “Bacterial Biotransformation” value [11] was “Compound NOT metabolized”. The “Bacterial Biotransformation” value [12] was “Compound NOT metabolized”, the “Bacterial Biotransformation” value [13] was “Compound NOT metabolized” and the “Bacterial Biotransformation” value [5] was “Compound NOT metabolized”. The “Bacterial Biotransformation” value [14] was “Compound NOT metabolized”, the “Bacterial Biotransformation” value [15] was “Compound NOT metabolized” and the “Bacterial Biotransformation” value [6] was “Compound metabolized”. The “Bacterial Biotransformation” value [16] was “Compound NOT metabolized”, the “Bacterial Biotransformation” value [7] was “Compound NOT metabolized” and the “Bacterial Biotransformation” value [17] was “Compound NOT metabolized”. The “Bacterial Biotransformation” value [8] was “Compound NOT metabolized”, the “Bacterial Biotransformation” value [18] was “Compound NOT metabolized” and the “Bacterial Biotransformation” value [19] was “Compound metabolized”. For the same compound, the “Bacterial Biotransformation” value [20] was “Compound NOT metabolized”, the “Bacterial Biotransformation” value [9] was “Compound NOT metabolized” and the “Bacterial Biotransformation” value [10] was “Compound NOT metabolized”.
For `COc1ccc(C(CN(C)C)C2(O)CCCCC2)cc1` (configuration not stated) [VENLAFAXINE], the “Bacterial Biotransformation” value [1] was “Compound NOT metabolized”, the “Bacterial Biotransformation” value [3] was “Compound NOT metabolized” and the “Bacterial Biotransformation” value [4] was “Compound NOT metabolized”. For the same compound, the “Bacterial Biotransformation” value [11] was “Compound NOT metabolized”, the “Bacterial Biotransformation” value [12] was “Compound NOT metabolized” and the “Bacterial Biotransformation” value [13] was “Compound NOT metabolized”. The “Bacterial Biotransformation” value [5] was “Compound NOT metabolized”, the “Bacterial Biotransformation” value [14] was “Compound NOT metabolized” and the “Bacterial Biotransformation” value [15] was “Compound NOT metabolized”. The “Bacterial Biotransformation” value [6] was “Compound NOT metabolized”, the “Bacterial Biotransformation” value [16] was “Compound NOT metabolized” and the “Bacterial Biotransformation” value [7] was “Compound NOT metabolized”. The “Bacterial Biotransformation” value [17] was “Compound NOT metabolized”, the “Bacterial Biotransformation” value [8] was “Compound NOT metabolized” and the “Bacterial Biotransformation” value [18] was “Compound NOT metabolized”. For the same compound, the “Bacterial Biotransformation” value [19] was “Compound NOT metabolized”, the “Bacterial Biotransformation” value [20] was “Compound NOT metabolized” and the “Bacterial Biotransformation” value [9] was “Compound NOT metabolized”. For the same compound, the “Bacterial Biotransformation” value [10] was “Compound NOT metabolized”.
In the case of `C[C@@H](c1ncncc1F)[C@](O)(Cn1cncn1)c1ccc(F)cc1F` [VORICONAZOLE], the “Bacterial Biotransformation” value [1] was “Compound NOT metabolized”, the “Bacterial Biotransformation” value [3] was “Compound NOT metabolized” and the “Bacterial Biotransformation” value [4] was “Compound NOT metabolized”. The “Bacterial Biotransformation” value [11] was “Compound NOT metabolized”, the “Bacterial Biotransformation” value [12] was “Compound metabolized” and the “Bacterial Biotransformation” value [13] was “Compound NOT metabolized”. The “Bacterial Biotransformation” value [5] was “Compound NOT metabolized”, the “Bacterial Biotransformation” value [14] was “Compound NOT metabolized” and the “Bacterial Biotransformation” value [15] was “Compound NOT metabolized”. For the same compound, the “Bacterial Biotransformation” value [6] was “Compound NOT metabolized”, the “Bacterial Biotransformation” value [16] was “Compound NOT metabolized” and the “Bacterial Biotransformation” value [7] was “Compound NOT metabolized”. The “Bacterial Biotransformation” value [17] was “Compound NOT metabolized”, the “Bacterial Biotransformation” value [8] was “Compound NOT metabolized” and the “Bacterial Biotransformation” value [18] was “Compound metabolized”. For the same compound, the “Bacterial Biotransformation” value [19] was “Compound metabolized”, the “Bacterial Biotransformation” value [20] was “Compound NOT metabolized” and the “Bacterial Biotransformation” value [9] was “Compound NOT metabolized”. The “Bacterial Biotransformation” value [10] was “Compound NOT metabolized”.
For `CC(=O)CC(c1ccccc1)c1c(O)c2ccccc2oc1=O` (configuration not stated) [WARFARIN], the “Bacterial Biotransformation” value [1] was “Compound NOT metabolized”, the “Bacterial Biotransformation” value [3] was “Compound NOT metabolized” and the “Bacterial Biotransformation” value [4] was “Compound NOT metabolized”. For the same compound, the “Bacterial Biotransformation” value [11] was “Compound NOT metabolized”, the “Bacterial Biotransformation” value [12] was “Compound NOT metabolized” and the “Bacterial Biotransformation” value [13] was “Compound NOT metabolized”. For the same compound, the “Bacterial Biotransformation” value [5] was “Compound NOT metabolized”, the “Bacterial Biotransformation” value [14] was “Compound NOT metabolized” and the “Bacterial Biotransformation” value [15] was “Compound NOT metabolized”. The “Bacterial Biotransformation” value [6] was “Compound NOT metabolized”, the “Bacterial Biotransformation” value [16] was “Compound NOT metabolized” and the “Bacterial Biotransformation” value [7] was “Compound NOT metabolized”. The “Bacterial Biotransformation” value [17] was “Compound NOT metabolized”, the “Bacterial Biotransformation” value [8] was “Compound NOT metabolized” and the “Bacterial Biotransformation” value [18] was “Compound NOT metabolized”. The “Bacterial Biotransformation” value [19] was “Compound NOT metabolized”, the “Bacterial Biotransformation” value [20] was “Compound NOT metabolized” and the “Bacterial Biotransformation” value [9] was “Compound NOT metabolized”. The “Bacterial Biotransformation” value [10] was “Compound NOT metabolized”.
In the case of `c1ccc2[nH]c(-c3cscn3)nc2c1` [THIABENDAZOLE], the “Bacterial Biotransformation” value [1] was “Compound NOT metabolized”, the “Bacterial Biotransformation” value [3] was “Compound NOT metabolized” and the “Bacterial Biotransformation” value [4] was “Compound NOT metabolized”. The “Bacterial Biotransformation” value [11] was “Compound NOT metabolized”, the “Bacterial Biotransformation” value [12] was “Compound NOT metabolized” and the “Bacterial Biotransformation” value [13] was “Compound NOT metabolized”. For the same compound, the “Bacterial Biotransformation” value [5] was “Compound NOT metabolized”, the “Bacterial Biotransformation” value [14] was “Compound NOT metabolized” and the “Bacterial Biotransformation” value [6] was “Compound NOT metabolized”. The “Bacterial Biotransformation” value [16] was “Compound NOT metabolized”, the “Bacterial Biotransformation” value [7] was “Compound NOT metabolized” and the “Bacterial Biotransformation” value [17] was “Compound NOT metabolized”. The “Bacterial Biotransformation” value [8] was “Compound NOT metabolized”, the “Bacterial Biotransformation” value [19] was “Compound NOT metabolized” and the “Bacterial Biotransformation” value [20] was “Compound NOT metabolized”. The “Bacterial Biotransformation” value [9] was “Compound NOT metabolized” and the “Bacterial Biotransformation” value [10] was “Compound NOT metabolized”.
